pKi: −log10 of the molar value. Converted amounts (≈) assume the structure as drawn. Read-outs that look alike come from different tables or passages of the source. Where a SMILES comes first, the peptide text is derived from it. [ ]: non-standard residue; d: D form.
Legend:
[1] = Solubility in aqueous medium; format: physicochemical
log P = format: physicochemical
[2] = Half life in vivo (loss of radioactively labeled peptide from the circulation)
Procedure: The polypeptides of this invention are characterized by solubility in an aqueous medium at physiologic pH of 100-500 μm, an inhibition constant for (Ki) of between 1-50 μm and a half-life in vivo, as measured by rate of loss of radioactively labeled peptide from the circulation, of between about 1-10 minutes, especially 5-10 minutes.

renin [3] = biological target: T1, renin (Homo sapiens, UniProt P00797); assay: biochemical
T1 sequence (P00797 67-406): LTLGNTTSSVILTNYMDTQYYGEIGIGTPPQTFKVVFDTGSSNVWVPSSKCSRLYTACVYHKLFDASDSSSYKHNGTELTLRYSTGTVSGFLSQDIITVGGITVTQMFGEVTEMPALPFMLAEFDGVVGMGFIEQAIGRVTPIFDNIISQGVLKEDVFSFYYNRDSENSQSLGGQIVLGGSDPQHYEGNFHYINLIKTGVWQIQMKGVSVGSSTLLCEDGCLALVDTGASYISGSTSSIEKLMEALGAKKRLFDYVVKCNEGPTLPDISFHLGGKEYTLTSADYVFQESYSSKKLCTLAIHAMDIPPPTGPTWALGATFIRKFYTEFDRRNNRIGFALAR
Procedure: The peptide being tested is dissolved in 0.01 N HCl and the pH adjusted to pH 7.5 to obtain high concentrations of peptide. The peptide solution is diluted further to appropriate concentrations with 0.1 M Tris HCl-albumin.
First, to determine Km, renin (0.006 Goldblatt unit/ml) is incubated for 2 hrs. at 37° with incremental concentrations of tetradecapeptide substrate varying between 3 and 108μ M in a volume of 160 μl at pH 7.5 in 0.1M Tris HCl containing 0.5% albumin. The release of angiotensin I is determined by radioimmunoassay (Haber et al, J. Clin. Endocrinol. Metab. 29, 1349 (1969)). […] Controls for cross-relatively are performed with each experiment and appropriate corrections are made when significant, (Poulsen et al, Scand. J. Clin. Lab. Invest. 31, Suppl. No. 132, 1, (1973)).
The inhibitor constant is calculated at previously described, (Poulsen et al, Scand. J. Clin. Lab. Invest. 31, suppl. No. 132, 1, (1973)), from a weighted leastsquares fit of a Lineweaver-Burk plot. […]
Angiotensin I standards and tetradecapeptide renin substrate were obtained from Peninsula (San Mateo, CA). Angiotensin I concentrations were determined with the radio immunoassay kit purchased from New England Nuclear (Boston, MA). […]
Data from the RIA was worked up using a computer program. Data were first fitted to a Lineweaver-Burke plot and from this KI was calculated.

renin [4] = biological target: T1, renin; conditions: octapeptides with replaced Leu-Leu cleavage site, prior art; read-out: binding constants; cited from earlier work
[5] = pH 7.4, water, pH 7.40, read-out: Solubility (pH 7.40)

solubility [1] [µM] | logP (log P) | Compound | solubility [1, 5] [µM] | Half life in vivo [2] [min] | pKi (renin [3]) | life in vitro and in vivo ([2]; in vitro and in vivo) | pKi (renin [4])
330 (≈ 435 µg/mL) | -1.28 | CC(C)[C@H](NC(=O)[C@H](Cc1ccccc1)NC(=O)[C@H](Cc1ccccc1)NC(=O)[C@H](Cc1c[nH]cn1)NC(=O)[C@H](Cc1ccccc1)NC(=O)[C@@H]1CCCN1C(=O)[C@H](Cc1c[nH]cn1)NC(=O)[C@@H]1CCCN1)C(=O)N[C@@H](Cc1ccc(O)cc1)C(=O)N[C@H](CCCCN)C(=O)O [D-RIP, Pro-His-Pro-Phe-His-Phe-Phe-Val-Tyr-D-Lys] (H-PHPFHFFVY[dK]-OH) | 330 (≈ 435 µg/mL) | 5 | 4.53 | – | –
– | – | CC(C)[C@H](NC(=O)[C@H](Cc1ccccc1)NC(=O)[C@H](Cc1ccccc1)NC(=O)[C@H](Cc1cnc[nH]1)NC(=O)[C@H](Cc1ccccc1)NC(=O)[C@@H]1CCCN1C(=O)[C@H](Cc1cnc[nH]1)NC(=O)[C@@H]1CCCN1)C(=O)N[C@@H](Cc1ccc(O)cc1)C(=O)N[C@@H](CCCCN)C(=O)O [RIP, Pro-His-Pro-Pre-His-Phe-Phe-Val-Tyr-Lys] (H-PHPFHFFVYK-OH) | 840 (≈ 1110 µg/mL) | 3.8 | 4.38 | relatively short life | –
– | – | Leu-Phe | – | – | – | – | 5.40
– | – | Leu-Tyr | – | – | – | – | 4.92

— patent US4478827A, “Renin inhibitors” (The General Hospital Corporation, priority 1983, dated 1984)
